{"source": "ChEMBL document CHEMBL1148695", "about": "“Synthesis and biological activity of nociceptin/orphanin FQ analogues substituted in position 7 or 11 with Calpha,alpha-dialkylated amino acids” (Bioorg Med Chem, 2007)", "key": {"Nociceptin receptor [1]": {"molecular_target": "T1, Nociceptin receptor (Mus musculus, UniProt P35377)", "T1 sequence (P35377 whole entry)": "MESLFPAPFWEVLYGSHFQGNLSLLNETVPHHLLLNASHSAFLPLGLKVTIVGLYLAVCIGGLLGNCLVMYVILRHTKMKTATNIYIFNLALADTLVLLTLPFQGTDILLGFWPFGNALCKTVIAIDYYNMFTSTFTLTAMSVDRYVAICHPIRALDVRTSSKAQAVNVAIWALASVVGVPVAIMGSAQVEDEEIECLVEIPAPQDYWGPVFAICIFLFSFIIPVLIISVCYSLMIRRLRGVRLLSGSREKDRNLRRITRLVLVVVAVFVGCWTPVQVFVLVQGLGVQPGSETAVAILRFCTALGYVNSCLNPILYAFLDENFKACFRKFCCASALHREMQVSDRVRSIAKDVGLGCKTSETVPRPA", "assay": "(§1) Agonist activity at NOP receptor in Swiss mouse vas deferens by [35S]GTP-gamma-S binding assay", "type": "functional, tissue-based"}, "Nociceptin receptor [2]": {"molecular_target": "T2, Nociceptin receptor (Cavia porcellus, UniProt P47748)", "T2 sequence (P47748 whole entry)": "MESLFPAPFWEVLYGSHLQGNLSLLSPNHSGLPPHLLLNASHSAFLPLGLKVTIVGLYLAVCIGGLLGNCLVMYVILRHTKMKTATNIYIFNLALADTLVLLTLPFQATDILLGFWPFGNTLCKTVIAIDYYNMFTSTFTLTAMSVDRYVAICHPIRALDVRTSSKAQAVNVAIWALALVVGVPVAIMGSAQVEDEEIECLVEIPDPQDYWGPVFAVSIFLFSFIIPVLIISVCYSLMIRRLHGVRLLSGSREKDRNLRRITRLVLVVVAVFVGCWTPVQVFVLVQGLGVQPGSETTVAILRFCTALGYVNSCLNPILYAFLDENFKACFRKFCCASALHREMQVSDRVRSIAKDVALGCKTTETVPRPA", "assay": "(§2) Agonist activity at NOP receptor in Albino guinea pig ileum assessed as effect on electrically stimulated contractions", "type": "functional, tissue-based"}, "Nociceptin receptor [3]": {"molecular_target": "T1, Nociceptin receptor", "assay": "Antagonist activity at NOP receptor in Swiss mouse vas deferens by [35S]GTP-gamma-S binding assay", "type": "functional, tissue-based", "conditions": "read-out: pA2 (converted)"}, "Nociceptin receptor [4]": {"molecular_target": "T2, Nociceptin receptor", "assay": "Antagonist activity at NOP receptor in Albino guinea pig ileum assessed as effect on electrically stimulated contractions", "type": "functional, tissue-based", "conditions": "read-out: pA2 (converted)"}, "Nociceptin receptor [5]": {"molecular_target": "T3, Nociceptin receptor (Rattus norvegicus, UniProt P35370)", "T3 sequence (P35370 whole entry)": "as the sequence (P35377 whole entry) above, with F9Y, A335S counted along it", "assay": "Antagonist activity at NOP receptor in Sprague-Dawley rat vas deferens assessed as effect on electrically stimulated contractions", "type": "functional, tissue-based", "conditions": "read-out: pA2 (converted)"}, "[6]": {"molecular_target": "Nociceptin receptor (Mus musculus) (UniProt P35377)", "sequence (P35377 whole entry)": "as the sequence (P35377 whole entry) above", "assay": "as §1", "type": "functional, tissue-based"}, "[7]": {"molecular_target": "Nociceptin receptor (Cavia porcellus) (UniProt P47748)", "sequence (P47748 whole entry)": "as the sequence (P47748 whole entry) above", "assay": "as §2", "type": "functional, tissue-based"}, "Nociceptin receptor [8]": {"molecular_target": "T3, Nociceptin receptor", "assay": "Agonist activity at NOP receptor in Sprague-Dawley rat vas deferens assessed as effect on electrically stimulated contractions", "type": "functional, tissue-based"}, "[9]": {"molecular_target": "Nociceptin receptor (Mus musculus) (UniProt P35377)", "assay": "(§3) Agonist activity at NOP receptor in Swiss mouse vas deferens assessed as effect on electrically stimulated contractions", "type": "functional, tissue-based"}, "Nociceptin receptor [10]": {"molecular_target": "T1, Nociceptin receptor", "assay": "as §3", "type": "functional, tissue-based"}, "Mu-type opioid receptor": {"molecular_target": "Mu-type opioid receptor (Homo sapiens, UniProt P35372)", "sequence (P35372 whole entry)": "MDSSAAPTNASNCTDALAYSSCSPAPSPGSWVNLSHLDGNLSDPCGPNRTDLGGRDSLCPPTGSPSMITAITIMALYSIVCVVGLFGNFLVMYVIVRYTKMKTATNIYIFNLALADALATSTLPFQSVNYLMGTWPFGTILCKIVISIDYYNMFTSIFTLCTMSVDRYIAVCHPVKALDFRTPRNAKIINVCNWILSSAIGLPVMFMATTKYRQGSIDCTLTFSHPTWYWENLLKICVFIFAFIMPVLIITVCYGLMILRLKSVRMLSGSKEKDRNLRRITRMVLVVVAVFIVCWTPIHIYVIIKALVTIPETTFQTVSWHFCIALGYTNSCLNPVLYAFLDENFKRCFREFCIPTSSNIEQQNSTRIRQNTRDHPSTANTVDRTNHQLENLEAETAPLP", "assay": "Displacement of [3H]diprenorphine from human recombinant mu opioid receptor expressed in CHO cells", "type": "cell-based"}, "[11]": {"molecular_target": "Delta-type opioid receptor (Homo sapiens, UniProt P41143)", "sequence (P41143 whole entry)": "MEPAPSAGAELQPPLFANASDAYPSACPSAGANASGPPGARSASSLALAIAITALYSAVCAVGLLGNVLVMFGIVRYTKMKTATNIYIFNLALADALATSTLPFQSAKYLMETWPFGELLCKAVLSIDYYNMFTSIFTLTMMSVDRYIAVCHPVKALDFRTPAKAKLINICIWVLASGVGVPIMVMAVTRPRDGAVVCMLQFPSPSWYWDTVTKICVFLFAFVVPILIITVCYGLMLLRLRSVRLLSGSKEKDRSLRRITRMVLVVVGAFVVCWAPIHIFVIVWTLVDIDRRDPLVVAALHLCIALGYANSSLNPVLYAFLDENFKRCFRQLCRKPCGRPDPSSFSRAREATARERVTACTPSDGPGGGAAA", "assay": "Displacement of [3H]diprenorphine from human recombinant delta opioid receptor expressed in CHO cells", "type": "cell-based"}}, "note": "Activity calls are given as the source filed them. The calls are words filed in the database; no cut-off is given here. *1 amine or outer side, *2 acyl side, *3 side chain or, on linkers, in order; H or OH if unused. Where a SMILES comes first, the peptide text is derived from it. [ ]: non-standard residue; d: D form. X1 = N[C@@H](Cc1ccccc1)CN(CC(=O)[*:2])[*:1]; Phe(4-F) = N[C@@H](Cc1ccc(F)cc1)C(=O)O; Aib = CC(C)(N)C(=O)O", "data": [{"smiles": "CC(C)C[C@H](NC(=O)[C@H](CCCCN)NC(=O)[C@H](CCCN=C(N)N)NC(=O)[C@H](C)NC(=O)[C@H](CO)NC(=O)[C@H](CCCCN)NC(=O)[C@H](CCCN=C(N)N)NC(=O)[C@H](C)NC(=O)CNC(=O)[C@@H](NC(=O)[C@H](Cc1ccccc1)NC(=O)CNC(=O)CNC(=O)[C@@H](N)Cc1ccccc1)[C@@H](C)O)C(=O)N[C@@H](C)C(=O)N[C@@H](CC(N)=O)C(=O)N[C@@H](CCC(N)=O)C(=O)O", "note": "[NOCICEPTIN]", "values": [{"measurement": "EC50", "setting": "Nociceptin receptor [1]", "result": 35.5, "unit": "nM"}, {"measurement": "EC50", "setting": "Nociceptin receptor [2]", "result": 8.91, "unit": "nM"}]}, {"smiles": "C[C@H](NC(=O)[C@H](CO)NC(=O)[C@H](CCCCN)NC(=O)[C@H](CCCNC(=N)N)NC(=O)C(C)(C)NC(=O)CNC(=O)[C@@H](NC(=O)[C@H](Cc1ccc(F)cc1)NC(=O)CNC(=O)CNC[C@@H](N)Cc1ccccc1)[C@@H](C)O)C(=O)N[C@@H](CCCNC(=N)N)C(=O)N[C@@H](CCCCN)C(=O)N[C@@H](CCCNC(=N)N)C(=O)N[C@@H](CCCCN)C(=O)N[C@@H](CC(N)=O)C(=O)N[C@@H](CCC(N)=O)C(N)=O", "note": "(H-[X1]G[Phe(4-F)]TG[Aib]RKSARKRKNQ-NH2)", "values": [{"measurement": "Kb", "setting": "Nociceptin receptor [3]", "result": 0.794, "unit": "nM"}, {"measurement": "Kb", "setting": "Nociceptin receptor [4]", "result": 0.316, "unit": "nM"}, {"measurement": "Kb", "setting": "Nociceptin receptor [5]", "result": 0.603, "unit": "nM"}]}, {"smiles": "C[C@H](NC(=O)[C@H](CO)NC(=O)[C@H](CCCCN)NC(=O)[C@H](CCCNC(=N)N)NC(=O)C(C)(C)NC(=O)CNC(=O)[C@@H](NC(=O)[C@H](Cc1ccc(F)cc1)NC(=O)CNC(=O)CNC(=O)[C@@H](N)Cc1ccccc1)[C@@H](C)O)C(=O)N[C@@H](CCCNC(=N)N)C(=O)N[C@@H](CCCCN)C(=O)N[C@@H](CCCNC(=N)N)C(=O)N[C@@H](CCCCN)C(=O)N[C@@H](CC(N)=O)C(=O)N[C@@H](CCC(N)=O)C(N)=O", "values": [{"measurement": "Emax", "setting": "[6]", "result": 84, "unit": "%"}, {"measurement": "EC50", "setting": "Nociceptin receptor [1]", "result": 0.575, "unit": "nM"}, {"measurement": "Emax", "setting": "[7]", "result": 32, "unit": "%"}, {"measurement": "EC50", "setting": "Nociceptin receptor [2]", "result": 0.676, "unit": "nM"}, {"measurement": "EC50", "setting": "Nociceptin receptor [8]", "result": 4.57, "unit": "nM"}]}, {"smiles": "CC(C)C[C@H](NC(=O)[C@H](CCCCN)NC(=O)[C@H](CCCNC(=N)N)NC(=O)C1(NC(=O)[C@H](CO)NC(=O)[C@H](CCCCN)NC(=O)[C@H](CCCNC(=N)N)NC(=O)[C@H](C)NC(=O)CNC(=O)[C@@H](NC(=O)[C@H](Cc2ccccc2)NC(=O)CNC(=O)CNC(=O)[C@@H](N)Cc2ccccc2)[C@@H](C)O)CCCCC1)C(=O)N[C@@H](C)C(=O)N[C@@H](CC(N)=O)C(=O)N[C@@H](CCC(N)=O)C(N)=O", "values": [{"measurement": "Emax", "setting": "[9]", "result": 89, "unit": "%"}, {"measurement": "EC50", "setting": "Nociceptin receptor [10]", "result": 16.2, "unit": "nM"}]}, {"smiles": "CCCC(CCC)(NC(=O)[C@H](CO)NC(=O)[C@H](CCCCN)NC(=O)[C@H](CCCNC(=N)N)NC(=O)[C@H](C)NC(=O)CNC(=O)[C@@H](NC(=O)[C@H](Cc1ccccc1)NC(=O)CNC(=O)CNC(=O)[C@@H](N)Cc1ccccc1)[C@@H](C)O)C(=O)N[C@@H](CCCNC(=N)N)C(=O)N[C@@H](CCCCN)C(=O)N[C@@H](CC(C)C)C(=O)N[C@@H](C)C(=O)N[C@@H](CC(N)=O)C(=O)N[C@@H](CCC(N)=O)C(N)=O", "values": [{"measurement": "Emax", "setting": "[9]", "result": 86, "unit": "%"}, {"measurement": "EC50", "setting": "Nociceptin receptor [10]", "result": 29.5, "unit": "nM"}]}, {"smiles": "CCCC(CCC)(NC(=O)CNC(=O)[C@@H](NC(=O)[C@H](Cc1ccccc1)NC(=O)CNC(=O)CNC(=O)[C@@H](N)Cc1ccccc1)[C@@H](C)O)C(=O)N[C@@H](CCCNC(=N)N)C(=O)N[C@@H](CCCCN)C(=O)N[C@@H](CO)C(=O)N[C@@H](C)C(=O)N[C@@H](CCCNC(=N)N)C(=O)N[C@@H](CCCCN)C(=O)N[C@@H](CC(C)C)C(=O)N[C@@H](C)C(=O)N[C@@H](CC(N)=O)C(=O)N[C@@H](CCC(N)=O)C(N)=O", "values": [{"measurement": "Emax", "setting": "[9]", "result": 91, "unit": "%"}, {"measurement": "EC50", "setting": "Nociceptin receptor [10]", "result": 12.6, "unit": "nM"}]}, {"smiles": "CC(C)C[C@H](NC(=O)[C@H](CCCCN)NC(=O)[C@H](CCCNC(=N)N)NC(=O)[C@H](C)NC(=O)[C@H](CO)NC(=O)[C@H](CCCCN)NC(=O)[C@H](CCCNC(=N)N)NC(=O)C1(NC(=O)CNC(=O)[C@@H](NC(=O)[C@H](Cc2ccccc2)NC(=O)CNC(=O)CNC(=O)[C@@H](N)Cc2ccccc2)[C@@H](C)O)CCCCC1)C(=O)N[C@@H](C)C(=O)N[C@@H](CC(N)=O)C(=O)N[C@@H](CCC(N)=O)C(N)=O", "values": [{"measurement": "Emax", "setting": "[9]", "result": 87, "unit": "%"}, {"measurement": "EC50", "setting": "Nociceptin receptor [10]", "result": 63.1, "unit": "nM"}]}, {"smiles": "C[C@H](NC(=O)[C@H](CO)NC(=O)[C@H](CCCCN)NC(=O)[C@H](CCCNC(=N)N)NC(=O)C(C)(C)NC(=O)CNC(=O)[C@@H](NC(=O)[C@H](Cc1ccccc1)NC(=O)CNC(=O)CNC(=O)[C@@H](N)Cc1ccccc1)[C@@H](C)O)C(=O)N[C@@H](CCCNC(=N)N)C(=O)N[C@@H](CCCCN)C(=O)N[C@@H](CCCNC(=N)N)C(=O)N[C@@H](CCCCN)C(=O)N[C@@H](CC(N)=O)C(=O)N[C@@H](CCC(N)=O)C(N)=O", "values": [{"measurement": "Activity", "setting": "[6]", "result": "inactive"}, {"measurement": "Activity", "setting": "[7]", "result": "inactive"}]}, {"smiles": "CC(C)C[C@H](NC(=O)[C@H](CCCCN)NC(=O)[C@H](CCCNC(=N)N)NC(=O)[C@H](C)NC(=O)[C@H](CO)NC(=O)[C@H](CCCCN)NC(=O)[C@H](CCCNC(=N)N)NC(=O)[C@H](C)NC(=O)CNC(=O)[C@@H](NC(=O)[C@H](Cc1ccccc1)NC(=O)CNC(=O)CNC(=O)[C@@H](N)Cc1ccccc1)[C@@H](C)O)C(=O)N[C@@H](C)C(=O)N[C@@H](CC(N)=O)C(=O)N[C@@H](CCC(N)=O)C(=O)O", "values": [{"measurement": "Emax", "setting": "[6]", "result": 87, "unit": "%"}, {"measurement": "Emax", "setting": "[7]", "result": 45, "unit": "%"}]}, {"smiles": "CC(C)C[C@H](NC(=O)[C@H](CCCCN)NC(=O)[C@H](CCCNC(=N)N)NC(=O)C(C)(CC(C)C)NC(=O)[C@H](CO)NC(=O)[C@H](CCCCN)NC(=O)[C@H](CCCNC(=N)N)NC(=O)[C@H](C)NC(=O)CNC(=O)[C@@H](NC(=O)[C@H](Cc1ccccc1)NC(=O)CNC(=O)CNC(=O)[C@@H](N)Cc1ccccc1)[C@@H](C)O)C(=O)N[C@@H](C)C(=O)N[C@@H](CC(N)=O)C(=O)N[C@@H](CCC(N)=O)C(N)=O", "note": "(some centres undefined)", "values": [{"measurement": "Emax", "setting": "[9]", "result": 91, "unit": "%"}, {"measurement": "EC50", "setting": "Nociceptin receptor [10]", "result": 13.5, "unit": "nM"}]}, {"smiles": "C[C@H](NC(=O)[C@H](CO)NC(=O)[C@H](CCCCN)NC(=O)[C@H](CCCNC(=N)N)NC(=O)C(C)(C)NC(=O)CNC(=O)[C@@H](NC(=O)[C@H](Cc1ccccc1)NC(=O)CNC(=O)CNC(=O)CNCc1ccccc1)[C@@H](C)O)C(=O)N[C@@H](CCCNC(=N)N)C(=O)N[C@@H](CCCCN)C(=O)N[C@@H](CCCNC(=N)N)C(=O)N[C@@H](CCCCN)C(=O)N[C@@H](CC(N)=O)C(=O)N[C@@H](CCC(N)=O)C(N)=O", "values": [{"measurement": "Ki", "setting": "Mu-type opioid receptor", "result": "> 10000", "unit": "nM"}, {"measurement": "Ki", "setting": "[11]", "result": "> 10000", "unit": "nM"}, {"measurement": "Kb", "setting": "Nociceptin receptor [3]", "result": 34.7, "unit": "nM"}, {"measurement": "Kb", "setting": "Nociceptin receptor [4]", "result": 46.8, "unit": "nM"}, {"measurement": "Kb", "setting": "Nociceptin receptor [5]", "result": 87.1, "unit": "nM"}]}]}
